In BindingDB's records for doi:10.7270/Q2183BCW (D3R/Abbott, 2020) one finds IC50 data, which are given here for 17 compounds.

In this test the target is Cathepsin S (Homo sapiens, UniProt P25774). The test can be described thus: D3R2024.
Sequence of Cathepsin S (P25774 whole entry): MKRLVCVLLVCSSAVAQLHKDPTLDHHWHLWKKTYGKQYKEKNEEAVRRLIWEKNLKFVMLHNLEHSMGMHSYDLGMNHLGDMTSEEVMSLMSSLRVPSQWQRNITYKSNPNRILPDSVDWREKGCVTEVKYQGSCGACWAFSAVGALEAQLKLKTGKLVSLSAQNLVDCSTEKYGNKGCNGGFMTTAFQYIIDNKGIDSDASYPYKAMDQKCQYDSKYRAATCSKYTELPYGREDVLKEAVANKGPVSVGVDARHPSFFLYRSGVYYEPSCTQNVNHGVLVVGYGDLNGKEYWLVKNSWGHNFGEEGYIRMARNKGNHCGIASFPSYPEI
Excerpt: D3R2024
The term IC50 denotes the concentration at which inhibition is half-maximal. `COC(=O)c1cccc(NC(=O)NC2CCN(c3ccnc(Nc4cc(OC)c(OC)c(OC)c4)n3)C2)c1` (configuration not stated) [D3RKN_99]: half-maximal inhibition (IC50) was put at 0.34 µM. In other words, the sub-micromolar range.
In the case of `N#Cc1cccc(C(=O)NC2CCN(c3ccnc(Nc4ccc(F)cc4)n3)C2)c1` (configuration not stated) [D3RKN_100], the concentration for half-maximal inhibition (IC50) was 5.8 µM.
With `COc1cc(Nc2nccc(N3CCC(NC(=O)Nc4cc(C)ccc4C)C3)n2)cc(OC)c1OC` (configuration not stated) [D3RKN_101] the figure was 10 µM.
On to `CCCc1ccc(S(=O)(=O)NC2CCN(c3ccnc(Nc4ccc(OC)cc4)n3)C2)cc1` (configuration not stated) [D3RKN_102], for which the IC50 was found to be 0.68 µM.
With `COc1ccc(Nc2nccc(N3CCC(NS(=O)(=O)c4ccc(NC(C)=O)cc4)C3)n2)cc1` (configuration not stated) [D3RKN_103] the figure was 0.053 µM; with `COc1cc(Nc2nccc(N3CCC(NC(=O)c4cc5ccccc5s4)C3)n2)cc(OC)c1OC` (configuration not stated) [D3RKN_104], 0.71 µM; with `COc1cc(Nc2nccc(N3CCC(NC(=O)c4cccc(C#N)c4)C3)n2)cc(OC)c1OC` (configuration not stated) [D3RKN_105], 0.18 µM.
`COC(=O)C(NC(=O)NC1CCN(c2ccnc(Nc3ccc(F)cc3)n2)C1)c1ccccc1` (configuration not stated) [D3RKN_106] showed an IC50 of 7.8 µM.
For `Cc1ccc(C)c(NC(=O)NC2CCN(c3ccnc(Nc4ccc(F)cc4)n3)C2)c1` (configuration not stated) [D3RKN_108], it took 10 µM to reach half-maximal inhibition (IC50).
For `COC(=O)C(Cc1ccccc1)NC(=O)NC1CCN(c2ccnc(Nc3ccc(F)cc3)n2)C1` (configuration not stated) [D3RKN_109] the value was 1.9 µM; for `O=C(NC1CCN(c2ccnc(Nc3ccc(F)cc3)n2)C1)c1cc2ccccc2s1` (configuration not stated) [D3RKN_110], 10 µM; for `COc1ccc(Nc2nccc(N3CCC(NC(=O)c4cccc(NC(C)=O)c4)C3)n2)cc1` (configuration not stated) [D3RKN_111], 2.4 µM.
With `COc1ccc(Nc2nccc(N3CCC(NC(=O)c4cccc(C#N)c4)C3)n2)cc1` (configuration not stated) [D3RKN_112] the figure was 4.7 µM.
With `COC(=O)c1cccc(NC(=O)NC2CCN(c3ccnc(Nc4ccc(OC)cc4)n3)C2)c1` (configuration not stated) [D3RKN_113] the figure was 10 µM; with `COc1cc(Nc2nccc(N3CCC(NC(=O)c4cccc(NC(C)=O)c4)C3)n2)cc(OC)c1OC` (configuration not stated) [D3RKN_114], 0.054 µM; with `COc1ccc(Nc2nccc(N3CCC(NC(=O)Nc4cc(C)ccc4C)C3)n2)cc1` (configuration not stated) [D3RKN_115], 10 µM.
In the case of `COC(=O)c1cccc(NC(=O)NC2CCN(c3ccnc(Nc4ccc(F)cc4)n3)C2)c1` (configuration not stated) [TCMDC-133606], the IC50 is 10 µM.
